O=[N+]([O-])c1cccc2c([N+](=O)[O-])cccc12
solubility (mole fraction)
Conditions	in acetone	in acetonitrile	in chloroform	in ethanol	in ethyl acetate	in ethylbenzene	in n-propanol	in toluene
273.15 K	0.000703	0.000236	0.000629	1.99e-05	0.000648	0.000522	2.17e-05	0.000683
275.65 K	0.000762	0.000265	0.000731	2.25e-05	0.000699	0.000578	2.53e-05	0.000761
278.15 K	0.000844	0.000296	0.000881	2.62e-05	0.000754	0.000638	2.96e-05	0.000858
280.65 K	0.000912	0.000333	0.00102	3.1e-05	0.000835	0.000714	3.41e-05	0.000958
283.15 K	0.000991	0.000372	0.00118	3.66e-05	0.000923	0.000785	3.92e-05	0.00106
285.65 K	0.00108	0.000415	0.00135	4.16e-05	0.000998	0.000863	4.45e-05	0.00117
288.15 K	0.00117	0.000468	0.00153	4.81e-05	0.00113	0.000941	5.16e-05	0.00129
290.65 K	0.00126	0.00053	0.0017	5.43e-05	0.00123	0.00104	5.77e-05	0.00141
293.15 K	0.00138	0.000585	0.00192	6.15e-05	0.00136	0.00116	6.54e-05	0.00153
295.65 K	0.00149	0.000659	0.00213	6.94e-05	0.00148	0.00129	7.43e-05	0.0017
298.15 K	0.00164	0.000741	0.00238	7.82e-05	0.00164	0.0014	8.45e-05	0.00186
300.65 K	0.00174	0.000831	0.00269	8.74e-05	0.0018	0.00152	9.67e-05	0.00205
303.15 K	0.0019	0.000914	0.00295	9.75e-05	0.00198	0.00166	0.00011	0.00223
305.65 K	0.00201	0.000997	0.00334	0.000109	0.00218	0.00182	0.000126	0.00242
308.15 K	0.00217	0.00111	0.00369	0.000122	0.00238	0.00201	0.000142	0.00264
310.65 K	0.00229	0.00121	0.00408	0.000139	0.00258	0.00219	0.000163	0.00287
313.15 K	0.00242	0.00133	0.00451	0.000157	0.00284	0.00248	0.000182	0.00309
